# System: female NMRI mice
# Experiment: Anorectic effect: cumulative condensed milk consumption of mice
# Assay type: in vivo
# Details: oral dose 30 mg/kg by gavage
# Procedure: The anorectic effect was tested on female NMRI mice. After withdrawal of food for 17 hours, the test compound was administered by gavage. The animals were housed singly with free access to drinking water and were offered condensed milk 30 minutes after administration of the compound. Condensed milk consumption was determined every half hour for 7 hours, and the general wellbeing of the animals was observed. The measured milk consumption was compared with the vehicle-treated control animals.
# Table 1: Anorectic effect measured as the reduction in the cumulative milk consumption of treated compared with control animals.
compound,measurement,setting,value
"CN(C)CCOc1ccc(-n2ccn(-c3ccc(Oc4ccccc4)cc3)c2=O)cc1 [Example 1, 1-[4-(2-Dimethylaminoethoxy)phenyl]-3-(4-phenoxyphenyl)-1,3-dihydroimidazol-2-one]",cumulative milk consumption of the treated animals,"female NMRI mice after 17 hours food withdrawal, N=5, consumption determined for 7 hours",5/1.7 ml
same,Reduction in the cumulative milk consumption as % of the control,"female NMRI mice, compared with vehicle-treated control animals",58%
